Data: patent publication US20100273189A1, “NON SEPARATION ASSAYS WITH SELECTIVE SIGNAL INHIBITORS” (BECKMAN COULTER, INC., priority 2009, published 2010)

Tests used:
cTnI = cTnI detection via heterogeneous assay; assay type: biochemical
Protocol: This example describes a method of detecting cTnI (Cardiac Troponin I) using an AK-Abl particle prepared e.g., as set forth in Example 3 and a HRP-Ab2 conjugate prepared e.g., as set forth in Example 4 where Ab2 represents an antibody to cTnI. The effect of ascorbic acid on background signal was investigated.
HRP-Ab2 conjugate suspensions were prepared at 1.0 μg/mL and contained either 0 or 1 mM ascorbic acid. Samples consisted of human serum samples with the indicated mounts of cTnI added or no cTnI as a control. The test procedure consisted of adding 20 μL of 1.0 μg/mL HRP-Ab2 conjugate and 30 μL of MES buffer containing 1 mg/mL BSA and 1 mg/mL MIgG, pH 5.9 to the reaction vessel. Next, 25 μL of patient serum sample was added, followed by 25 μL of 1.0 mg/mL AK-Abl conjugate suspension thereby obtaining 100 μL of total volume in the reaction vessel. After 15.2 minutes, 100 μL of trigger solution A was added to the reaction vessel and the light intensity was recorded on the modified DxI instrument. Chemiluminescence intensity is expressed in Relative Light Units (RLU).

beta hCG = experiment: Beta hCG assay, AK-Ab1 particle + HRP-Ab2 conjugate; assay type: biochemical, human; conditions: ascorbic acid employed
Protocol: This example describes a method of detecting beta-human chorionic gonadotrophin (beta hCG) using an AK-Abl particle prepared as set forth in Example 3 and a HRP-Ab2 conjugate prepared as set forth in Example 4 where Ab2 represents an antibody to beta hCG. This method employed ascorbic acid to decrease background signal.
HRP-Ab2 conjugate suspensions were prepared at 1.0 μg/mL and contained either 0 or 1 mM ascorbic acid. Samples consisted of human serum samples with the indicated mounts of beta hCG added or no beta hCG as a control. The test procedure consisted of adding 20 μL of 1.0 μg/mL HRP-Ab2 conjugate and 30 μL of MES buffer containing 1 mg/mL BSA and 1 mg/mL MIgG, pH 5.9 to the reaction vessel. Next, 25 μL of patient serum sample was added, followed by 25 μL of 10 mg/mL AK-Abl conjugate suspension thereby obtaining 100 μL of total volume in the reaction vessel. After 15.2 minutes, 100 μL of trigger solution A was added to the reaction vessel and the light intensity was recorded on the modified DxI instrument. Chemiluminescence intensity is expressed in Relative Light Units (RLU).

TnI = experiment: Effect of trigger pH: TnI on LodeStars with ascorbate; assay type: biochemical
Protocol: B. In order to determine the effect of trigger solution pH on a variety of test assay systems, a series of experiments were conducted varying trigger pH. […] In the tables, two pH values are listed for each data set. The first is the pH of the buffer sample added to the reaction mixture. The second is the resulting pH of the final reaction mix.

[1] = with ascorbic acid, S1, cTnI 172 pg/mL
[2] = with ascorbic acid, S2, cTnI 366 pg/mL
[3] = with ascorbic acid, S3, cTnI 1368 pg/mL
[4] = with ascorbic acid, S4, cTnI 11136 pg/mL
[5] = with ascorbic acid, S5, cTnI 27922 pg/mL
[6] = with ascorbic acid, S6, cTnI 106000 pg/mL
[7] = Control (7.5), S1, TnI 172 ng/ml
[8] = Control (7.5), S2, TnI 366 ng/ml
[9] = Control (7.5), S3, TnI 1368 ng/ml
[10] = Control (7.5), S4, TnI 11136 ng/ml
[11] = Control (7.5), S5, TnI 27922 ng/ml
[12] = Control (7.5), S6, TnI 10600 ng/ml
[13] = pH 6.0 (5.9), S1, TnI 172 ng/ml
[14] = pH 6.0 (5.9), S2, TnI 366 ng/ml
[15] = pH 6.0 (5.9), S3, TnI 1368 ng/ml
[16] = pH 6.0 (5.9), S4, TnI 11136 ng/ml
[17] = pH 6.0 (5.9), S5, TnI 27922 ng/ml
[18] = pH 6.0 (5.9), S6, TnI 10600 ng/ml
[19] = pH 7.0 (7.1), S1, TnI 172 ng/ml
[20] = pH 7.0 (7.1), S2, TnI 366 ng/ml
[21] = pH 7.0 (7.1), S3, TnI 1368 ng/ml
[22] = pH 7.0 (7.1), S4, TnI 11136 ng/ml
[23] = pH 7.0 (7.1), S5, TnI 27922 ng/ml
[24] = pH 7.0 (7.1), S6, TnI 10600 ng/ml
[25] = pH 8.0 (7.9), S1, TnI 172 ng/ml
[26] = pH 8.0 (7.9), S2, TnI 366 ng/ml
[27] = pH 8.0 (7.9), S3, TnI 1368 ng/ml
[28] = pH 8.0 (7.9), S4, TnI 11136 ng/ml
[29] = pH 8.0 (7.9), S5, TnI 27922 ng/ml
[30] = pH 8.0 (7.9), S6, TnI 10600 ng/ml
[31] = pH 9.0 (8.7), S1, TnI 172 ng/ml
[32] = pH 9.0 (8.7), S2, TnI 366 ng/ml
[33] = pH 9.0 (8.7), S3, TnI 1368 ng/ml
[34] = pH 9.0 (8.7), S4, TnI 11136 ng/ml
[35] = pH 9.0 (8.7), S5, TnI 27922 ng/ml
[36] = pH 9.0 (8.7), S6, TnI 10600 ng/ml

SMILES: O=C1O[C@H]([C@@H](O)CO)C(O)=C1O [Ascorbic Acid, Ascorbic acid]
- background signal (cTnI; in the presence of ascorbic acid, in words): significant reduction in background signal
- RLU (cTnI; second column pair (with 1 mM ascorbic acid in conjugate), S0, cTnI 0 pg/mL): 422 RLU
- RLU (cTnI; [1]): 1320 RLU
- S/S0 (cTnI; [1]): 3.1
- RLU (cTnI; [2]): 2778 RLU
- S/S0 (cTnI; [2]): 6.6
- RLU (cTnI; [3]): 10254 RLU
- S/S0 (cTnI; [3]): 24.3
- RLU (cTnI; [4]): 108628 RLU
- S/S0 (cTnI; [4]): 257.4
- RLU (cTnI; [5]): 325082 RLU
- S/S0 (cTnI; [5]): 770.3
- RLU (cTnI; [6]): 2380772 RLU
- S/S0 (cTnI; [6]): 5641.6
- RLU (beta hCG; S0, beta hCG 0 IU/mL): 1,031 RLU
- RLU (beta hCG; S1, beta hCG 4.35 IU/mL): 7,288 RLU
- S/S0 (beta hCG; S1, beta hCG 4.35 IU/mL): 7
- RLU (beta hCG; S2, beta hCG 20.81 IU/mL): 35,320 RLU
- S/S0 (beta hCG; S2, beta hCG 20.81 IU/mL): 34
- RLU (beta hCG; S3, beta hCG 127.285 IU/mL): 298,108 RLU
- S/S0 (beta hCG; S3, beta hCG 127.285 IU/mL): 289
- RLU (beta hCG; S4, beta hCG 413.455 IU/mL): 1,293,751 RLU
- S/S0 (beta hCG; S4, beta hCG 413.455 IU/mL): 1,255
- RLU (beta hCG; S5, beta hCG 775.805 IU/mL): 2,225,779 RLU
- S/S0 (beta hCG; S5, beta hCG 775.805 IU/mL): 2,159
- Ave RLUs (TnI; Control (7.5), S0, TnI 0 ng/ml): 543 RLU
- Ave RLUs (TnI; [7]): 1,013 RLU
- S/S0 (TnI; [7]): 1.9
- Ave RLUs (TnI; [8]): 1,815 RLU
- S/S0 (TnI; [8]): 3.3
- Ave RLUs (TnI; [9]): 5,981 RLU
- S/S0 (TnI; [9]): 11.0
- Ave RLUs (TnI; [10]): 53,524 RLU
- S/S0 (TnI; [10]): 98.6
- Ave RLUs (TnI; [11]): 155,889 RLU
- S/S0 (TnI; [11]): 287.3
- Ave RLUs (TnI; [12]): 1,235,103 RLU
- S/S0 (TnI; [12]): 2276.0
- Ave RLUs (TnI; pH 6.0 (5.9), S0, TnI 0 ng/ml): 273 RLU
- Ave RLUs (TnI; [13]): 379 RLU
- S/S0 (TnI; [13]): 1.4
- Ave RLUs (TnI; [14]): 600 RLU
- S/S0 (TnI; [14]): 2.2
- Ave RLUs (TnI; [15]): 1,452 RLU
- S/S0 (TnI; [15]): 5.3
- Ave RLUs (TnI; [16]): 11,579 RLU
- S/S0 (TnI; [16]): 42.4
- Ave RLUs (TnI; [17]): 32,519 RLU
- S/S0 (TnI; [17]): 119.0
- Ave RLUs (TnI; [18]): 216,379 RLU
- S/S0 (TnI; [18]): 791.6
- Ave RLUs (TnI; pH 7.0 (7.1), S0, TnI 0 ng/ml): 519 RLU
- Ave RLUs (TnI; [19]): 1,031 RLU
- S/S0 (TnI; [19]): 2.0
- Ave RLUs (TnI; [20]): 1,703 RLU
- S/S0 (TnI; [20]): 3.3
- Ave RLUs (TnI; [21]): 5,695 RLU
- S/S0 (TnI; [21]): 11.0
- Ave RLUs (TnI; [22]): 57,599 RLU
- S/S0 (TnI; [22]): 111.1
- Ave RLUs (TnI; [23]): 145,140 RLU
- S/S0 (TnI; [23]): 279.8
- Ave RLUs (TnI; [24]): 938,075 RLU
- S/S0 (TnI; [24]): 1808.6
- Ave RLUs (TnI; pH 8.0 (7.9), S0, TnI 0 ng/ml): 699 RLU
- Ave RLUs (TnI; [25]): 1,319 RLU
- S/S0 (TnI; [25]): 1.9
- Ave RLUs (TnI; [26]): 2,359 RLU
- S/S0 (TnI; [26]): 3.4
- Ave RLUs (TnI; [27]): 8,048 RLU
- S/S0 (TnI; [27]): 11.5
- Ave RLUs (TnI; [28]): 72,016 RLU
- S/S0 (TnI; [28]): 103.1
- Ave RLUs (TnI; [29]): 225,113 RLU
- S/S0 (TnI; [29]): 322.2
- Ave RLUs (TnI; [30]): 1,574,655 RLU
- S/S0 (TnI; [30]): 2253.8
- Ave RLUs (TnI; pH 9.0 (8.7), S0, TnI 0 ng/ml): 413 RLU
- Ave RLUs (TnI; [31]): 716 RLU
- S/S0 (TnI; [31]): 1.7
- Ave RLUs (TnI; [32]): 1,097 RLU
- S/S0 (TnI; [32]): 2.7
- Ave RLUs (TnI; [33]): 3,999 RLU
- S/S0 (TnI; [33]): 9.7
- Ave RLUs (TnI; [34]): 36,424 RLU
- S/S0 (TnI; [34]): 88.1
- Ave RLUs (TnI; [35]): 107,020 RLU
- S/S0 (TnI; [35]): 258.9
- Ave RLUs (TnI; [36]): 855,956 RLU
- S/S0 (TnI; [36]): 2070.9
